Results reported in patent publication US20100021599A1, “PRESERVATIVE” (LANXESS DEUTSCHLAND GMBH, priority 2006, published 2010).
Like-named read-outs stand apart in the source and are kept apart here.

Test system: Paecilomyces variotii
Settings: single substance alone, fruit-component drink inoculated with conidia, incubated two weeks at 27° C.
Experimental: A drink which contains fruit components was admixed with various concentrations of citric acid and subsequently inoculated with conidia of the fungus Paecilomyces variotii. Subsequently, the inoculated drinks samples were treated with various DMDC concentrations and incubated for two weeks at 27° C.

Row | SMILES | MHC | MHC (listed as citric acid)
1 | O=C(O)CC(O)(CC(=O)O)C(=O)O [Citric acid, citric acid] | >30 000 ppm | > 30 000 ppm
2 | COC(=O)OC(=O)OC [DMDC, dimethyl dicarbonate] | >250 ppm | –
